What was measured:
SLC6A1 = system: SLC6A1; set-up: method as in ChEMBL, GtoPdb; conditions: SLC6A1, known data from the KNIME workflow; ref ChEMBL, GtoPdb; cited from earlier work
SLC6A15 = system: SLC6A15; set-up: method as in ChEMBL, GtoPdb, pubmed 25318072; conditions: SLC6A15, known data from the KNIME workflow; ref ChEMBL, GtoPdb, pubmed 25318072; cited from earlier work
NR1H4 = system: NR1H4; set-up: method as in other_targets_pubmed_ids column; conditions: cited from earlier work
KCNK9 = system: KCNK9; set-up: method as in other_targets_pubmed_ids column; conditions: cited from earlier work
HRH1 = system: HRH1; set-up: method as in other_targets_pubmed_ids column; conditions: cited from earlier work
HTR2B = system: HTR2B; set-up: method as in other_targets_pubmed_ids column; conditions: cited from earlier work
PTAFR = system: PTAFR; set-up: method as in other_targets_pubmed_ids column; conditions: cited from earlier work
SLC6A19 = system: SLC6A19; set-up: method as in GtoPdb, pubmed 30589598; conditions: SLC6A19, known data from the KNIME workflow; ref GtoPdb, pubmed 30589598; cited from earlier work
SLC22A6 (OAT1) = conditions: cited from earlier work
ABCG2 = system: ABCG2; set-up: method as in Zhao et al., 2022; conditions: ref Zhao et al., 2022; cited from earlier work
SLC22A12 (URAT1) = conditions: cited from earlier work
SLC2A9 (GLUT9) = conditions: cited from earlier work
SCN2A = system: SCN2A; set-up: method as in other_targets_pubmed_ids column; conditions: cited from earlier work
SLC22A1 = system: SLC22A1; set-up: method as in PMID 18788725, 9655880, 28230985; conditions: ChEMBL CHEMBL994103, CHEMBL2076233, CHEMBL4009597; ref PMID 18788725, 9655880, 28230985; cited from earlier work
SLC29A4 = system: SLC29A4; set-up: method as in PMID 16099839, 27506881; conditions: GtoPdb 1120; ref PMID 16099839, 27506881; cited from earlier work
SLC22A3 = system: SLC22A3; set-up: method as in PMID 10966924; conditions: ChEMBL CHEMBL2078549; ref PMID 10966924; cited from earlier work
SLC22A2 = system: SLC22A2; set-up: method as in PMID 9260930; conditions: ChEMBL CHEMBL2076808; ref PMID 9260930; cited from earlier work
SIGMAR1 = system: SIGMAR1; set-up: method as in pubmed 7990111, 9057857, 12801223; conditions: ref pubmed 7990111, 9057857, 12801223; cited from earlier work
SLC2A2 = system: SLC2A2; set-up: method as in ChEMBL; conditions: SLC2A2, known data from the KNIME workflow; ref ChEMBL; cited from earlier work
SLC2A4 = system: SLC2A4; set-up: method as in ChEMBL, PubChem; conditions: SLC2A4, known data from the KNIME workflow; ref ChEMBL, PubChem; cited from earlier work
SLC2A1 = system: SLC2A1; set-up: method as in ChEMBL, PubChem; conditions: SLC2A1, known data from the KNIME workflow; ref ChEMBL, PubChem; cited from earlier work
SLC6A4 = SLC6A4 (Homo sapiens, UniProt P31645)
SLC6A4, sequence (P31645 whole entry): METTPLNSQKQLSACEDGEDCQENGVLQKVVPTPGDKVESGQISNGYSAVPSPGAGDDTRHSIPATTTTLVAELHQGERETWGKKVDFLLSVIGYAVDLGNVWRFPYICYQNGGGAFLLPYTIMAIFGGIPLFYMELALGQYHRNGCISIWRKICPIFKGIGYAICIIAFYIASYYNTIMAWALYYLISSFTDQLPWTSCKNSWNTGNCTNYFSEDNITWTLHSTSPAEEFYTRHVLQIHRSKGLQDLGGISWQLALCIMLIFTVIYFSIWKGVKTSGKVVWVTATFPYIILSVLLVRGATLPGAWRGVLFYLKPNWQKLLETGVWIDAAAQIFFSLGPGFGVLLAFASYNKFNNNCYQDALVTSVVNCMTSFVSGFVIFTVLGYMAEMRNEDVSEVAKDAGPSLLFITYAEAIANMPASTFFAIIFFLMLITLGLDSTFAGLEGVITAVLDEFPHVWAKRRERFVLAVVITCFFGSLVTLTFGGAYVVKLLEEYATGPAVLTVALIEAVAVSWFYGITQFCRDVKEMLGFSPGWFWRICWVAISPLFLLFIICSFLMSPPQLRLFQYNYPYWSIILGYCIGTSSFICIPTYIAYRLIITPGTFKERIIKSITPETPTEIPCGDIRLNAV

Cc1ccsc1C(=CCCN1CCC[C@@H](C(=O)O)C1)c1sccc1C [Tiagabine]
primary_SLC_act (SLC6A1): 7.18

CCOC(=O)N1CCC(=C2c3ccc(Cl)cc3CCc3cccnc32)CC1 [Loratadine]
primary_SLC_act (SLC6A15): 5.4 | other_targets_act (NR1H4): 5.51 | other_targets_act (KCNK9): 4.2 | other_targets_act (HRH1): 6.72 | other_targets_act (HTR2B): 6.71 | other_targets_act (PTAFR): 4.3

CCNC(=O)/C=C/c1cccc(Br)c1 [Cinromide]
primary_SLC_act (SLC6A19): 6.4

N#Cc1ccc(Nc2cnccc2SCc2ccccc2C(=O)O)c2ccccc12 [KPH2f]
primary_SLC_act, SLC22A6 (SLC22A6 (OAT1); ChEMBL CHEMBL5157441, ref PMID 34998055): 4.49 | IC50 (SLC22A6 (OAT1); ref Zhao et al., 2022): 32.1 µM | IC50 (ABCG2): 26.7 µM | primary_SLC_act, SLC22A12 (SLC22A12 (URAT1); ChEMBL CHEMBL5157443, ref PMID 34998055): 6.62 | IC50 (SLC22A12 (URAT1); ref Zhao et al., 2022): 0.24 µM | primary_SLC_act (SLC2A9 (GLUT9); SLC2A9, known data from the KNIME workflow, ref ChEMBL, pubmed 34998055): 5.03 | IC50 (SLC2A9 (GLUT9); ref Zhao et al., 2022): 9.37 µM

Nc1nc2ccc(OC(F)(F)F)cc2s1 [Riluzole]
other_targets_act (SCN2A): 5.66

CNCCCN1c2ccccc2CCc2ccccc21 [Desipramine]
primary_SLC_act, SLC22A1 (SLC22A1): 5.04 | primary_SLC_act, SLC29A4 (SLC29A4): 4.49 | primary_SLC_act, SLC22A3 (SLC22A3): 4.85 | primary_SLC_act, SLC22A2 (SLC22A2): 4.8

Fc1ccc(C(OCCN2CCN(CCCc3ccccc3)CC2)c2ccc(F)cc2)cc1 [Vanoxerine (GBR12909), Vanoxerine]
other_targets_act (SIGMAR1): 7.37

Cc1c(NC(=O)c2cc(C(N)=O)nc3cc(F)ccc23)c(C(F)(F)F)nn1Cc1ccc(C#N)cc1 [BAY-876]
primary_SLC_act (SLC2A2): 5.03 | primary_SLC_act (SLC2A4): 5.91 | primary_SLC_act (SLC2A1): 8.03 | dose–response effect on SERT activity under glucose-free conditions (SLC6A4; glucose-free conditions, HEK293–JumpIn–SLC6A4 cells): could not be reproduced | effect on SERT (SLC6A4) activity (SLC6A4; medium with glucose, in words): increase in SERT (SLC6A4) activity

— PMC11267547, “Advancing drug discovery through assay development: a survey of tool compounds within the human solute carrier superfamily” (Frontiers in Pharmacology, 2024)
